From ChEMBL document CHEMBL5338767, “A Molecular Toolbox of Positron Emission Tomography Tracers for General Anesthesia Mechanism Research” (J Med Chem, 2023)

Legend:
[1] = Lipophilicity, logP of the compound; conditions: octanol/water
[2] = Lipophilicity, logD of compound at pH 7; conditions: buffer
[3] = Dissociation constant, pKa of the compound; assay type: physicochemical
[4] = target: Glutamate NMDA receptor; GRIN1/GRIN2A (Homo sapiens, UniProt Q05586+Q12879); experiment: Binding affinity to GluN1/GluN2A receptor (unknown origin) assessed as inhibition constant; assay type: protein-complex assay
[5] = target: Neuronal acetylcholine receptor; alpha6/beta2 (Homo sapiens, UniProt P17787+Q15825); experiment: Binding affinity to nACh alpha6beta2 receptor (unknown origin) assessed as inhibition constant; assay type: protein-complex assay
[6] = target: T1, Gamma-aminobutyric acid receptor subunit alpha-5 (Homo sapiens, UniProt P31644); experiment: Binding affinity to GABAa alpha5 (unknown origin) assessed as inhibition constant
T1 sequence (P31644 whole entry): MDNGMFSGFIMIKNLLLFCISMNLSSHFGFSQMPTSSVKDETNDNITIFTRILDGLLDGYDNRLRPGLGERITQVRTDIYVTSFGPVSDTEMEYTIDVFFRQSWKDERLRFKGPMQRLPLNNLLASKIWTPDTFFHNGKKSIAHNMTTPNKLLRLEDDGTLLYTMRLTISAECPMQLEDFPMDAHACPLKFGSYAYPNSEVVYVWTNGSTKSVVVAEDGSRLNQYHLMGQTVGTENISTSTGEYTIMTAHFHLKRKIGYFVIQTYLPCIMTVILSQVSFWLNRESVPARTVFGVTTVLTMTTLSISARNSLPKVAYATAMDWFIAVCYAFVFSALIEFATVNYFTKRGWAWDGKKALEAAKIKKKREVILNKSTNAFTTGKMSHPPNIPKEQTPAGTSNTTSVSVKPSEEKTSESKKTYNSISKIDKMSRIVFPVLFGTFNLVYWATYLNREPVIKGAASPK

[7] = target: T2, Kappa-type opioid receptor (Homo sapiens, UniProt P41145); experiment: Binding affinity to kappa opioid receptor (unknown origin) assessed as inhibition constant
[8] = Drug distribution in rhesus monkey striatum assessed as maximum binding; assay type: ADME, tissue-based, Macaca mulatta
[9] = Half life in rhesus monkey; assay type: ADME, Macaca mulatta; conditions: in vivo
[10] = Drug distribution in rhesus monkey temporal cortex assessed as maximum binding; assay type: ADME, tissue-based, Macaca mulatta
[11] = Drug distribution in rhesus monkey temporal cortex assessed as dissociation constant; assay type: ADME, tissue-based, Macaca mulatta
Mu-type opioid receptor = Mu-type opioid receptor (Homo sapiens, UniProt P35372)
[12] = target: T2, Kappa-type opioid receptor; experiment: Binding affinity to kappa opioid receptor (unknown origin)
[13] = Lipophilicity, logD of compound at pH 7.4; assay type: physicochemical; conditions: buffer
[14] = Selectivity ratio of Ki for kappa opioid receptor (unknown origin) for Ki for delta opioid receptor (unknown origin)
[15] = Selectivity ratio of Ki for kappa opioid receptor (unknown origin) for Ki for mu opioid receptor (unknown origin)
[16] = target: T3, Gamma-aminobutyric acid receptor subunit alpha-2 (Homo sapiens, UniProt P47869); experiment: Binding affinity to GABAa alpha2 (unknown origin) assessed as inhibition constant
T3 sequence (P47869 whole entry): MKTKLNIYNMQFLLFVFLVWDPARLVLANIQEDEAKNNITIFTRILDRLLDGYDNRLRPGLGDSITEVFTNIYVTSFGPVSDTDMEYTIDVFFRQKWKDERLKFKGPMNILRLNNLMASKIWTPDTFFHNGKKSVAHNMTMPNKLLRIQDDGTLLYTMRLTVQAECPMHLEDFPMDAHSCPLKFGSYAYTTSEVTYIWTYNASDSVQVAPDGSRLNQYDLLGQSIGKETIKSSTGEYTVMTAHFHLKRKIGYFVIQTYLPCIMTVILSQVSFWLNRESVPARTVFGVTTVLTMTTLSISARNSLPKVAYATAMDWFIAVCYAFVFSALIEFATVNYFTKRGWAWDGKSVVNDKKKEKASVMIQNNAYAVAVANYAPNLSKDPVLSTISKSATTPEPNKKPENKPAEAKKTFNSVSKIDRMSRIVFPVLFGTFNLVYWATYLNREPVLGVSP

[17] = target: T4, Gamma-aminobutyric acid receptor subunit alpha-1 (Homo sapiens, UniProt P14867); experiment: Binding affinity to GABAa alpha1 (unknown origin) assessed as inhibition constant
T4 sequence (P14867 whole entry): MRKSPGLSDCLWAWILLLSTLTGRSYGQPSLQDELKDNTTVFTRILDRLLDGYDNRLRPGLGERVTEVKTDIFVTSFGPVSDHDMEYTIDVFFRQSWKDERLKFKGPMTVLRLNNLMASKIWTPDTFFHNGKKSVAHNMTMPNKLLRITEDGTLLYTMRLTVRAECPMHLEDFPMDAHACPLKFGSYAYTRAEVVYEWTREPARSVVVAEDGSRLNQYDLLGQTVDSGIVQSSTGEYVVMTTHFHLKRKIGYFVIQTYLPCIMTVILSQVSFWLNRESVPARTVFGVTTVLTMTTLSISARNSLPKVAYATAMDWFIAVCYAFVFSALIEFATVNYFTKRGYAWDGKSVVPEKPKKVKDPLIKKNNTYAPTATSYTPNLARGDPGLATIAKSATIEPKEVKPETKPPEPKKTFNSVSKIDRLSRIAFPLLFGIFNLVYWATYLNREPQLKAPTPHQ

[18] = target: T5, Gamma-aminobutyric acid receptor subunit alpha-3 (Homo sapiens, UniProt P34903); experiment: Binding affinity to GABAa alpha3 (unknown origin) assessed as inhibition constant
T5 sequence (P34903 whole entry): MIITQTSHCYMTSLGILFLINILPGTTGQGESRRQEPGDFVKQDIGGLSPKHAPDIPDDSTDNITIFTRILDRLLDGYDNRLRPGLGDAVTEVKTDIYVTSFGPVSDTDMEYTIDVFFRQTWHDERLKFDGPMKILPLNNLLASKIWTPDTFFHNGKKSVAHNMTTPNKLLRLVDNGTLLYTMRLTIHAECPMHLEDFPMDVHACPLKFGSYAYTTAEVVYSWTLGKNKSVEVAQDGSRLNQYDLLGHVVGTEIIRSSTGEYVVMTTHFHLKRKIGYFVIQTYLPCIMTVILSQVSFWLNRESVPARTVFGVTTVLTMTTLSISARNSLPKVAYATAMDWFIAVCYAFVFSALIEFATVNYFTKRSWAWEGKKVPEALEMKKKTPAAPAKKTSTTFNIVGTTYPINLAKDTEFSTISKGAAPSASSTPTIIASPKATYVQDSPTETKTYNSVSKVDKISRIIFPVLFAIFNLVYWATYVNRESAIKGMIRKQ

[19] = Binding affinity to GABA/BZ receptor (unknown origin) assessed as inhibition constant; parameters: species or system Homo sapiens
[20] = Adrenal to liver ratio in rat measured at 60 mins; assay type: ADME, tissue-based; conditions: 1 h

T2 sequence (P41145 whole entry): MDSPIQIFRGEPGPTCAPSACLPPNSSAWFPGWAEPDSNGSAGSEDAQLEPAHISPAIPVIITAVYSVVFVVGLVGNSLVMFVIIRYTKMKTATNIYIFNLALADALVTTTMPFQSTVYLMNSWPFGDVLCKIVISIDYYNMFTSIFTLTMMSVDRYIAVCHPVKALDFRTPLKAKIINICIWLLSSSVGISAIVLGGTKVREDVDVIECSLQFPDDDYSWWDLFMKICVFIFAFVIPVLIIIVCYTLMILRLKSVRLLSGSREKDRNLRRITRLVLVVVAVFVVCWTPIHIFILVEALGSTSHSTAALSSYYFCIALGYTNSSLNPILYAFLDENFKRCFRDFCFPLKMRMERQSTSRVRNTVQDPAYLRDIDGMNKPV
Chain of Neuronal acetylcholine receptor; alpha6/beta2 (P17787 whole entry): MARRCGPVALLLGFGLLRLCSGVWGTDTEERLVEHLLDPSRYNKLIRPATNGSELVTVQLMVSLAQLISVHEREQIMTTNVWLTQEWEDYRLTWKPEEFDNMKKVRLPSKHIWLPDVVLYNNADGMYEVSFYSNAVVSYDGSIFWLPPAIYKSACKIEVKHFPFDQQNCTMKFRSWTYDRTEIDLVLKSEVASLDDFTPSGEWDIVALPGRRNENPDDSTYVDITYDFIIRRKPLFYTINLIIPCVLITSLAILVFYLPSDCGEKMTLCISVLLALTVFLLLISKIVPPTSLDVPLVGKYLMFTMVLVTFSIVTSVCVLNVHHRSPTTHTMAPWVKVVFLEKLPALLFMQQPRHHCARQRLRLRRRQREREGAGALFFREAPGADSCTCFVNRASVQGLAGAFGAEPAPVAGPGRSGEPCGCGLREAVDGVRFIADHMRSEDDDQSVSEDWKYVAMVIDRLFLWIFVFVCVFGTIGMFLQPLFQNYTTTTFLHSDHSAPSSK
Chain of Neuronal acetylcholine receptor; alpha6/beta2 (Q15825 whole entry): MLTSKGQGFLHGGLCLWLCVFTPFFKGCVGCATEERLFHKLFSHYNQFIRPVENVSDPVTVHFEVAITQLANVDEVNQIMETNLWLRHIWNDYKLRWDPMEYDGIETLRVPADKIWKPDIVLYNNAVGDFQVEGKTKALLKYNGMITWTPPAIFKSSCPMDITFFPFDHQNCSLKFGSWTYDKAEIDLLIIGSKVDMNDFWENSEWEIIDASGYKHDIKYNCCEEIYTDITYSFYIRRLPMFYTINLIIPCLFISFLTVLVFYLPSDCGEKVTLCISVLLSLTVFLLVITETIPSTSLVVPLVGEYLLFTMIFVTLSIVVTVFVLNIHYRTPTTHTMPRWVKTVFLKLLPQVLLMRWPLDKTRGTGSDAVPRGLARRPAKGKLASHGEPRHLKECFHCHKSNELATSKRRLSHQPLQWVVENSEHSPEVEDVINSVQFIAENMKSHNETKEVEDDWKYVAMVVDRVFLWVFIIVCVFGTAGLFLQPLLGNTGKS
Chain of Glutamate NMDA receptor; GRIN1/GRIN2A (Q12879 whole entry, other chains not shown): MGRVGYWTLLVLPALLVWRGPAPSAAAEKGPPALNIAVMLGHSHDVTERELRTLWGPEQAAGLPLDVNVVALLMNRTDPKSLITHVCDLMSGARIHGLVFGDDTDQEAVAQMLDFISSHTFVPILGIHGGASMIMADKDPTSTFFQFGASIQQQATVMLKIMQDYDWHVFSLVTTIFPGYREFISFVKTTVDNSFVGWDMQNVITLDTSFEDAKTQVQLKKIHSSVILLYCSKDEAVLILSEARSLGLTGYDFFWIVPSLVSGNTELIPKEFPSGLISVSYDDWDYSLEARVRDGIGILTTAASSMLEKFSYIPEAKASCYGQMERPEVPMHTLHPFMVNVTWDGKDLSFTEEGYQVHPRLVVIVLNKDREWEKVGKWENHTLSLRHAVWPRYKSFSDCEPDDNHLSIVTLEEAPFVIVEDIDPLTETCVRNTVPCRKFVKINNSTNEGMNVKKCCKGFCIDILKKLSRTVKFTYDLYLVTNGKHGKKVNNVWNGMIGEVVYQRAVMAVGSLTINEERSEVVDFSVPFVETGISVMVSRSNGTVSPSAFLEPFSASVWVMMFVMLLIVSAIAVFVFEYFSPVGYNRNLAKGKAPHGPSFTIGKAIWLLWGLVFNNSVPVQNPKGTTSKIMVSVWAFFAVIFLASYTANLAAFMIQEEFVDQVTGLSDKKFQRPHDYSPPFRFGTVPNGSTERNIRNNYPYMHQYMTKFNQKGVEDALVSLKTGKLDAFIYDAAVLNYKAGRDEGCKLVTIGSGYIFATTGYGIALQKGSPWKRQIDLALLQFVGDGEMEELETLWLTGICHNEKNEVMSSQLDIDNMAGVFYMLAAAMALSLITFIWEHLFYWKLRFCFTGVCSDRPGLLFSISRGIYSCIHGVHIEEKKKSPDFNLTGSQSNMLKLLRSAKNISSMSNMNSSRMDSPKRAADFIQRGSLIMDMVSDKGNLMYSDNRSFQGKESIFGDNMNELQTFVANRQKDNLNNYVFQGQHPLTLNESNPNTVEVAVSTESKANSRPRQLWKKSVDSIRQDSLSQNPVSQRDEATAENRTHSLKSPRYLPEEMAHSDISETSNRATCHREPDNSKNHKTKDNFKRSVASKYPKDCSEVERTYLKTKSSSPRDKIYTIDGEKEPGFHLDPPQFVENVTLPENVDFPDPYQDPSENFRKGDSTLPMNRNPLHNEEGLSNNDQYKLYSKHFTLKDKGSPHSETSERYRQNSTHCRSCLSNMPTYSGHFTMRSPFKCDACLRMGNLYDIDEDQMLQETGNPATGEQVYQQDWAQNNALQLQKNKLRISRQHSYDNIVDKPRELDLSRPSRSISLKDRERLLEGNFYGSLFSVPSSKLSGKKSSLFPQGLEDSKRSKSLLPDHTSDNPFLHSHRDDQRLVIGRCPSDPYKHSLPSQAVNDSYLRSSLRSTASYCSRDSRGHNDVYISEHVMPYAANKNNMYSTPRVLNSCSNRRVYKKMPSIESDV
Chain of Mu-type opioid receptor (P35372 whole entry): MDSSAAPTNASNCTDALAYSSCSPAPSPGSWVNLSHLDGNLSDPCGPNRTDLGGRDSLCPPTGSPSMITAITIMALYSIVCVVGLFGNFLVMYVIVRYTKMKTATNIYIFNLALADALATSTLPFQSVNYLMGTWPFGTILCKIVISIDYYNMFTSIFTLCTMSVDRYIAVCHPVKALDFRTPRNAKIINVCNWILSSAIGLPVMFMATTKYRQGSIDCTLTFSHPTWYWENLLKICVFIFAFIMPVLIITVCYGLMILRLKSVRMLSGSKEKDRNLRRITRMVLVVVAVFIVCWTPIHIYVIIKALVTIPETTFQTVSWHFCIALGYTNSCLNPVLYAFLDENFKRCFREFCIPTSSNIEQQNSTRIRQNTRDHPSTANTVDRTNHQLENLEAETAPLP

| SMILES | logP [1] | logD [2] | pKa [3] | also measured |
| --- | --- | --- | --- | --- |
| FC(F)OC(F)C(F)(F)F (centres undefined) | 2.16 | 1.88 |  |  |
| CCCc1cc(Cl)cc2[nH]c(=O)c(-c3cccc(O[11CH3])c3)c(O)c12 | 3.78 |  | 9.06 | Ki [4]: 7200 nM |
| CCOC(=O)c1ncn2c1CN(C)C(=O)c1cc([18F])ccc1-2 | 1.11 |  | 0.86 |  |
| C[C@@H](C[11CH3])CCc1cnc(Cl)c(/C=C/c2ccncc2)c1 | 4.94 |  |  | Ki [5]: 0.077 nM |
| CCOC(=O)c1ncn2c1CN([11CH3])C(=O)c1cc(N=[N+]=[N-])ccc1-2 |  |  | 8.45 | Ki [6]: ~0.5 nM |
| [18F]CCCc1cncc(OC[C@@H]2C=CCN2)c1 | 1.42 | 0.71 | 8.21 | Ki [5]: 0.36 nM |
| CCOC(=O)c1ncn2c1CN([11CH3])C(=O)c1cc(F)ccc1-2 | 1.11 |  | 0.86 |  |
| CCN(CCF)C[C@@H]1CN(C(=O)CO[11CH3])CCN1C(=O)Cc1ccc(C)c(C)c1 | 1.53 |  | 7.51 |  |
| CN1C2CCCC1C(c1cncc(-c3cccnc3[18F])c1)C2 (centres undefined) | 2.47 |  | 9.18 | Ki [5]: 0.06 nM |
| CCN(CC)C[C@@H]1CN(C(=O)COC)CCN1C(=O)Cc1ccc(C)c(C)c1 |  |  |  | Ki [7]: 0.28 nM |
| [18F]c1ccc(C2CC3CCCC2N3)cn1 (single isomer, unassigned; (-)) | 1.75 | -0.76 | 9.28 |  |
| CN1CC=C[C@H]1COc1cccnc1[18F] | 1.21 | 0.3 | 8.09 | Ki [5]: 0.5 nM |
| NC(=O)c1ccc(Oc2ccc(CN3CCC[C@H]3c3cccnc3)cc2)c([18F])c1 | 3.27 | 2.07 | 8.45 |  |
| CN([11CH3])[C@]1(c2ccccc2Cl)CCCCC1=O | 2.84 | 2.93 | 6.92 | Kd [8]: 14000 nM; half-life [9]: > 15 min; Kd [10]: 4000 nM; Kd [11]: 7000 nM |
| CC(OC(F)F)C(F)(F)F (centres undefined) | 2.47 | 2.12 |  |  |
| CC(=O)N(Cc1ccccc1OCC[18F])c1ccccc1Oc1ccccc1 | 4.51 |  |  |  |
| CN(C)c1cccc2c(S(=O)(=O)N/N=C/c3ccc([18F])cc3)cccc12 | 4.94 | 3.92 |  |  |
| [18F]c1ncccc1OC[C@H]1CCN1 |  |  | 8.95 |  |
| Cc1cn([C@H]2C[C@H]([18F])[C@@H](CO)O2)c(=O)[nH]c1=O [ALOVUDINE F-18] | -0.41 | -0.2 | 13.7 |  |
| CN([11CH3])Cc1ccccc1Sc1ccc(C#N)cc1N | 3.31 | 0.89 | 9.43 |  |
| N[11C](=O)c1ccc(Oc2ccc(CN3CCC[C@H]3c3cccnc3)cc2)c(Cl)c1 | 3.67 | 2.71 | 8.45 | Ki [7]: 0.72 nM; Ki (Mu-type opioid receptor): 25.8 nM; Kd [12]: 0.028 nM |
| Oc1ccc2c(c1)CCN(CCCCc1ccccc1[18F])C[C@@H]2O | 4.03 | 2.07 | 8.68 | logD [13]: 2.2 |

| SMILES | logP [1] | logD [2] | pKa [3] | also measured |
| --- | --- | --- | --- | --- |
| CCN(CCF)C[C@@H]1CN(C(=O)COC)CCN1C(=O)Cc1ccc(C)c(C)c1 |  |  |  | Ki [7]: 0.43 nM; Ratio Ki [14]: 323; Ratio Ki [15]: 17 |
| [11CH3]C(=O)c1ccc2c(c1)CCN(CCCCc1ccccc1)CC2O (centres undefined) | 4.14 | 2.94 | 8.78 |  |
| CCN(CC)C[C@@H]1CN(C(=O)CO[11CH3])CCN1C(=O)Cc1ccc(C)c(C)c1 | 1.67 |  | 8.6 | Ki [7]: 0.28 nM |
| [11CH3]OC(=O)c1cncn1Cc1ccccc1 | 1.18 | 2.19 | 4.08 |  |
| O=S1(=O)c2cc(N3CCN4CCC3CC4)ccc2-c2cccc([18F])c21 | 2.71 | 1.72 | 8.68 |  |
| FCOC(C(F)(F)F)C(F)(F)[18F] (centres undefined) | 2.24 | 2.5 |  |  |
| C[11CH2]OC(=O)c1cncn1[C@H](C)c1ccccc1 | 1.83 | 3.05 | 4.23 |  |
| [18F]CCCc1cncc(OC[C@@H]2CCN2)c1 | 0.86 | -1.44 | 9.09 | Ki [5]: 0.67 nM |
| N[C@H](C[C@H]1CC(C(=O)O)=NN1c1ccc(CCCF)cc1)C(=O)O |  |  |  | Ki [4]: 52 nM |
| FC(F)([18F])C(Cl)Br (centres undefined) | 2.28 | 2.33 |  |  |
| CCOC(=O)c1ncn2c1CN(C)C(=O)c1cc(N=[N+]=[N-])ccc1-2 [Ro-154513] |  |  |  | Ki [16]: 7 nM; Ki [17]: 7 nM; Ki [18]: 7 nM; Ki [19]: 0.7 nM |
| C[C@H](c1ccc(Cl)cc1)n1cncc1C(=O)OCC[18F] | 2.25 | 3.76 | 3.76 |  |
| CN1C2CCCC1C(c1cncc(-c3cccc([18F])n3)c1)C2 (centres undefined) | 2.89 |  | 9.24 | Ki [5]: 0.95 nM |
| [11CH3]n1c2c(c3ccccc31)C[C@@]1(O)[C@H]3Cc4ccc(O)c5c4[C@@]1(CCN3CC1CC1)[C@H]2O5 | 3.31 |  | 14.2 |  |
| COc1cnc(OCc2cn(-c3ccc([18F])c(C)c3)nn2)nc1 | 2.76 | 1.55 | 0.73 |  |
| [11CH3]Oc1cccc(-c2c(O)c3c(I)cc(Cl)cc3[nH]c2=O)c1 | 3.81 | 1.91 | 8.83 | Ki [4]: 10300 nM |
| C[C@H](c1ccccc1)n1cncc1C(=O)OCC[18F] | 1.69 | 2.99 | 3.83 | Ratio [20]: 14.48 |
| [18F]c1ccc2cnn(N=C3NCCN3)c2c1 | 1.11 | 0.09 | 7.94 |  |
| CC(C)C[C@H](N)[11C](=O)O | -0.29 | -1.7 | 10.2 |  |
| N#Cc1cc([18F])cc(C#Cc2ccccn2)c1 | 3.25 | 3.38 | 1.89 |  |
| [11CH3]OCc1scnc1N1CCN(C[C@H]2COc3ccccc3O2)CC1 | 2.65 | 2.02 | 7.21 |  |
